Read-outs that look alike come from different tables or passages of the source. Positions of bridges follow the written chain, without caps; N, C: chain ends. Non-standard residues stand in square brackets, D forms with d. Residues, ends and D or L forms follow the SMILES beside them. *: point of attachment. Malonyl(2,2-Me2,histaminyl) = CC(C)(C(=O)NCCc1cnc[nH]1)C(=O)*; Ala(1H-tetrazol-5-yl) = N[C@@H](Cc1nnn[nH]1)C(=O)O; αMePhe(2-F) = C[C@](N)(Cc1ccccc1F)C(=O)O; αMeL = CC(C)C[C@](C)(N)C(=O)O; Nle = CCCC[C@H](N)C(=O)O
Tests used:
Assay type in all cases: cell-based
human GLP2 receptor = biological target: T1, human GLP2 receptor (Homo sapiens, UniProt O95838); assay: cAMP accumulation assay, functional agonism of human GLP2 receptor; conditions: HEK cells infected with human GLP2 receptor BacMam virus, HTRF cAMP; for Emax: HEK293, read-out: Human GLP-2R agonist cAMP Emax; for EC50: read-out: Human GLP-2R agonist cAMP pEC50 (converted)
T1 construct: expressed in transfected cells; host or cells: HEK cells, BacMam virus transduction
T1 sequence (O95838 1-553): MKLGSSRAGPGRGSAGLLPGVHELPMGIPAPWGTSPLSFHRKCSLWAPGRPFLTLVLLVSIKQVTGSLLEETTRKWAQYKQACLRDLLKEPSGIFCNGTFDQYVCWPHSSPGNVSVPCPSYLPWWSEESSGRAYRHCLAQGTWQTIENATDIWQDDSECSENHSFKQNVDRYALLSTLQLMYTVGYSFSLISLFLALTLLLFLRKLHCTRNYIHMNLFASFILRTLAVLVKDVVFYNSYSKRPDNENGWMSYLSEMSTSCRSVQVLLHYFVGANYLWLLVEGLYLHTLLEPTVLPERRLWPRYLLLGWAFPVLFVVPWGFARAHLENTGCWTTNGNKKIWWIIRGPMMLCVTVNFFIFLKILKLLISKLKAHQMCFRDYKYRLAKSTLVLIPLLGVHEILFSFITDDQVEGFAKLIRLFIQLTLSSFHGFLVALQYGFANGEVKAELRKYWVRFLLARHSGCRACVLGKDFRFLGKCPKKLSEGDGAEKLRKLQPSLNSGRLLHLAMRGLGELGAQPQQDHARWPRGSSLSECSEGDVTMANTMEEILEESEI
How it was run: (§1)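 cAMP read by HTRF detection reagents in lysis buffer following 45 min agonist exposure at 37 °C. Cells: frozen HEK transduced for 24 h with GLP1 or GLP2 receptor BacMam, suspended in HBSS plus 0.5 mM IBMX.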

human GLP1 receptor = biological target: T2, human GLP1 receptor (Homo sapiens, UniProt P43220); assay: cAMP accumulation assay, functional agonism of human GLP1 receptor; conditions: HEK cells infected with human GLP1 receptor BacMam virus, HTRF cAMP; for Emax: HEK293, read-out: Human GLP-1R agonist cAMP Emax; for EC50: read-out: Human GLP-1R agonist cAMP pEC50 (converted)
T2 construct: expressed in transfected cells; host or cells: HEK cells, BacMam virus transduction
How it was run: as §1

mouse GLP2 receptor = biological target: T3, mouse GLP2 receptor (Mus musculus, UniProt Q5IXF8); assay: cAMP accumulation assay, functional agonism of mouse GLP2 receptor
T3 construct: expressed in transfected cells; host or cells: HEK cells, transient transfection with GeneJuice
T3 sequence (Q5IXF8 1-512): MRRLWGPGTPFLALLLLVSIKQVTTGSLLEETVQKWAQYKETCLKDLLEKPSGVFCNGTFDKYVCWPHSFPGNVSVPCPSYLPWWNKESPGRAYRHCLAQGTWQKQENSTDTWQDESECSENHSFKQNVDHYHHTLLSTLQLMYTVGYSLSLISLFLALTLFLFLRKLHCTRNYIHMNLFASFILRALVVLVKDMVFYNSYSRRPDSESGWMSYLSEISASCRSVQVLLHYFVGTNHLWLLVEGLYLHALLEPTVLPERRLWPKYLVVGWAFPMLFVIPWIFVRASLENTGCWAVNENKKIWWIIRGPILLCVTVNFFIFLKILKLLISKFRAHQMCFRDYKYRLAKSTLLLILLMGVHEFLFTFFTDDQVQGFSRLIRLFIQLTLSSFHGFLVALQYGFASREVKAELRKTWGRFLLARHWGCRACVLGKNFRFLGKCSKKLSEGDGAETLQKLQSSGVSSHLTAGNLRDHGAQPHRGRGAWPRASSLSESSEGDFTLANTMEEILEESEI
Method: CAMP production upon agonist stimulation of mouse GLP2 or GLP1 receptors was assessed utilizing HiRange cAMP kit (Cisbio). In brief, HEK cells were transiently transfected for 24 hours with cDNA using GeneJuice Transfection reagent (EMD Millipore) and frozen at −80° C. for later use in the assay. On the day, various concentrations of compounds were dispensed using ECHO-555 (LabCyte) to a total volume of 100 nl into a low volume 384-well Proxi plate (Perkin Elmer) followed by addition of 10 μl of cell suspension delivering 8000 cells per well. Cells were prepared in the assay buffer (HBSS (Lonza) supplemented with 0.5 mM IBMX (Tocris)). After 45 min incubation at 37° C., the reaction was stopped by addition of the HTRF detection reagents in the lysis buffer provided in the kit. Following 1-hour incubation at RT, plates were read on Pherastar FS (BMG Labtech, Inc.) using standard HTRF settings. Dotmatics Studies software was used for calculation of pEC50 values by fitting data to a four-parameter concentration response curve.

[1] = HEK293, HEK cells transiently transfected with mouse GLP2 receptor, HTRF cAMP, read-out: Mouse GLP-2R agonist cAMP Emax
[2] = HEK cells transiently transfected with mouse GLP2 receptor, HTRF cAMP, read-out: Mouse GLP-2R agonist cAMP pEC50 (converted)

T2 sequence (P43220 24-463): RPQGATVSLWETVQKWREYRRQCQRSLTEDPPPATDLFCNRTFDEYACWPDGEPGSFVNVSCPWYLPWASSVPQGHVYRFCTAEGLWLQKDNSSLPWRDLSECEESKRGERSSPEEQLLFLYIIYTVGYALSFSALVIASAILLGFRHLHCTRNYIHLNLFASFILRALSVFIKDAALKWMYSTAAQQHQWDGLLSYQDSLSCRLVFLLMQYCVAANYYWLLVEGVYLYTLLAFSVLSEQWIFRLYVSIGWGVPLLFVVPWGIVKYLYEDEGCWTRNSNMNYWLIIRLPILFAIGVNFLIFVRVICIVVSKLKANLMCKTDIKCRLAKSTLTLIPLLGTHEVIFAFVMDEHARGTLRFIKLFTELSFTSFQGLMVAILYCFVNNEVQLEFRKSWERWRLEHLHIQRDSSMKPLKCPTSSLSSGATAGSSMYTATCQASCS

| SMILES | Emax (human GLP2 receptor) [%] | EC50 (human GLP2 receptor) [nM] | Emax (human GLP1 receptor) [%] | EC50 (human GLP1 receptor) [nM] | EC50 (mouse GLP2 receptor) [nM] | Emax (mouse GLP2 receptor; HEK293, read-out: Mouse GLP-2R agonist cAMP Emax) [%] | Emax (mouse GLP2 receptor; [1]) [%] | EC50 (mouse GLP2 receptor; [2]) [nM] |
| --- | --- | --- | --- | --- | --- | --- | --- | --- |
| CCCC[C@H](NC(=O)[C@H](CCC(=O)O)NC(=O)[C@H](CC(=O)O)NC(=O)[C@H](CO)NC(=O)[C@](C)(Cc1ccccc1F)NC(=O)[C@H](CO)NC(=O)CNC(=O)[C@H](Cc1nn[nH]n1)NC(=O)C(C)(C)C(=O)NCCc1c[nH]cn1)C(=O)N[C@H](Cc1ccccc1)C(=O)N[C@H]1CCC(=O)NCCCC[C@@H](C(=O)N[C@H]2CCC(=O)NCCCC[C@@H](C(=O)N[C@@H](CC(=O)O)C(=O)N[C@@H](Cc3ccccc3)C(=O)N[C@H](C(=O)N[C@H]3CCC(=O)NCCCC[C@@H](C(=O)N[C@H]4CCCCNC(=O)CC[C@@H](C(N)=O)NC(=O)[C@H]([C@@H](C)O)NC(=O)[C@H]([C@@H](C)CC)NC(=O)[C@H](CCCCN)NC4=O)NC(=O)[C@H]([C@@H](C)CC)NC(=O)[C@H](CC(C)C)NC(=O)[C@H](Cc4c[nH]c5ccccc45)NC3=O)[C@@H](C)CC)NC(=O)[C@H](C)NC(=O)[C@H](C)NC2=O)NC(=O)[C@H](CC(=O)O)NC(=O)[C@H](CC(C)C)NC(=O)[C@H]([C@@H](C)CC)NC1=O [Example 52] | 102 | 0.01 | 98.8 | 0.00251 | 0.2 | 103 | – | – |
| CCCC[C@H](NC(=O)[C@H](CCC(=O)O)NC(=O)[C@@H]1CCCCNC(=O)CC[C@H](NC(=O)[C@H](Cc2nn[nH]n2)NC(=O)C(C)(C)C(=O)NCCc2c[nH]cn2)C(=O)N[C@@H](CO)C(=O)N[C@@H](Cc2ccccc2)C(=O)N[C@@H](CO)C(=O)N1)C(=O)N[C@H](Cc1ccccc1)C(=O)N[C@H]1CCC(=O)NCCCC[C@@H](C(=O)N[C@H]2CCC(=O)NCCCC[C@@H](C(=O)N[C@@H](CC(=O)O)C(=O)N[C@@H](Cc3ccccc3)C(=O)N[C@H](C(=O)N[C@H]3CCC(=O)NCCCC[C@@H](C(=O)N[C@H]4CCCCNC(=O)CC[C@@H](C(N)=O)NC(=O)[C@H]([C@@H](C)O)NC(=O)[C@H]([C@@H](C)CC)NC(=O)[C@H](CCCCN)NC4=O)NC(=O)[C@H]([C@@H](C)CC)NC(=O)[C@H](CC(C)C)NC(=O)[C@H](Cc4c[nH]c5ccccc45)NC3=O)[C@@H](C)CC)NC(=O)[C@H](C)NC(=O)[C@H](C)NC2=O)NC(=O)[C@H](CC(=O)O)NC(=O)[C@H](CC(C)C)NC(=O)[C@H]([C@@H](C)CC)NC1=O [Example 78] | 103 | 0.0251 | 95.5 | 0.251 | – | – | 83.1 | 2 |
| CCCC[C@@H]1NC(=O)[C@H](CCC(=O)O)NC(=O)[C@@H](NC(=O)[C@H](CO)NC(=O)[C@](C)(Cc2ccccc2F)NC(=O)[C@H](CO)NC(=O)[C@@H](C)NC(=O)[C@H](Cc2nn[nH]n2)NC(=O)C(C)(C)C(=O)NCCc2c[nH]cn2)CCCCNC(=O)C[C@@H](C(=O)N[C@@](C)(CC(C)C)C(=O)N[C@@H](CC(C)C)C(=O)N[C@@H](CC(=O)O)C(=O)N[C@H]2CCC(=O)NCCCC[C@@H](C(=O)N[C@@H](CC(=O)O)C(=O)N[C@@H](Cc3ccccc3)C(=O)N[C@H](C(=O)N[C@H]3CCCCNC(=O)C[C@@H](C(=O)N[C@H]4CCC(=O)NCCCC[C@@H](C(N)=O)NC(=O)[C@H]([C@@H](C)O)NC(=O)[C@H]([C@@H](C)CC)NC(=O)[C@H](CCCCN)NC4=O)NC(=O)[C@H]([C@@H](C)CC)NC(=O)[C@H](CC(C)C)NC(=O)[C@H](Cc4c[nH]c5ccccc45)NC3=O)[C@@H](C)CC)NC(=O)[C@H](C)NC(=O)[C@H](C)NC(=O)[C@H](CCCCN)NC2=O)NC(=O)[C@@H](Cc2ccccc2)NC1=O [Example 56] ({Malonyl(2,2-Me2,histaminyl)}-[Ala(1H-tetrazol-5-yl)][dA]S[αMePhe(2-F)]SKE[Nle][dF]D[αMeL]LDEKAAKDFIKWLIDEKITK-NH2; lactam 6-10, 14-18, 22-26, 27-31 (inferred); C-terminus assumed) | 103 | 0.0126 | 97.3 | 0.0631 | – | – | 98.6 | 0.631 |

— US20240270809A1, “ORAL GLP RECEPTOR AGONISTS” (priority 2020, published 2024)
